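Exposure lasted 48 hours, with cells grown in 96-well plates and compounds tested at five concentrations. Here, GI50 denotes the concentration required for 50% inhibition of growth. TGI is the concentration that stops growth completely.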
What was measured:
Experiment in all cases: NCI anticancer screen, dose series, 48 h
[1] = tested on: EKVX NSCLC
[2] = tested on: HL-60(TB) leukemia
[3] = tested on: KM12 colon
[4] = tested on: M14 melanoma
[5] = tested on: MOLT-4 leukemia
[6] = tested on: OVCAR-8 ovarian
[7] = tested on: TK-10 renal
[8] = tested on: U251 CNS
[9] = tested on: HCT-15 colon
[10] = tested on: NCI-H226 lung

Row | SMILES | TGI [1] [µM] | TGI [2] [µM] | TGI [3] [µM] | TGI [4] [µM] | TGI [5] [µM] | TGI [6] [µM] | TGI [7] [µM] | TGI [8] [µM] | GI50 [1] [µM] | GI50 [9] [µM] | TGI [9] [µM] | GI50 [2] [µM] | GI50 [4] [µM] | GI50 [5] [µM] | GI50 [6] [µM] | GI50 [7] [µM] | GI50 [8] [µM] | GI50 [3] [µM] | GI50 [10] [µM] | TGI [10] [µM]
1 | O=c1[nH]c(=O)n(C2CC(O)C(CO)O2)cc1COCC(F)(F)F (stereo unspecified) | > 100 | > 100 | > 100 | > 100 | > 100 | > 100 | > 100 | > 100 | – | – | – | – | – | – | – | – | – | – | – | –
2 | CC12OC(C(=O)C13CCC3)C1C(=O)c3ccc4c(ccc5ccccc54)c3C(=O)C12 (stereo unspecified) | 63.7 | 43.7 | – | 45.4 | 53.6 | > 100 | 15 | 31.9 | 20.7 | 4.27 | 22.4 | 5.15 | 14.5 | 3.67 | 6.49 | 4.29 | 11.5 | – | – | –
3 | O=C(CN(/C=C/C(=O)C(F)(F)F)c1ccccc1)c1ccc(Cl)cc1 | > 100 | – | 37.7 | – | 52.5 | 45.5 | 88.2 | 29.5 | 40 | 19.2 | 46 | – | – | 19.9 | 18.6 | 28 | 15.7 | 15.2 | 18.1 | 33.1
4 | COc1cc(CN(c2ccc(C)cc2)C2OC(=O)c3ccccc32)cc(OC)c1OC (stereo unspecified) | > 100 | 33.7 | > 100 | > 100 | > 100 | – | > 100 | > 100 | 0.647 | 0.568 | > 100 | 0.406 | 0.43 | 0.908 | – | 2.51 | 0.397 | 0.445 | 0.507 | > 19.7
5 | Nc1nc2c(ccc3ccccc32)s1 | > 100 | – | > 100 | > 100 | > 100 | > 100 | > 100 | > 100 | 40.5 | > 100 | > 100 | – | > 100 | 12.7 | > 100 | 35.2 | > 100 | > 100 | > 100 | > 100
6 | COc1cccc(NC(=O)c2sc3nc4c(cc3c2N)C(O)CCC4)c1 (stereo unspecified) | – | 0.534 | > 100 | > 100 | > 100 | > 100 | > 100 | > 51.6 | – | 0.0856 | > 100 | 0.0534 | 0.134 | 0.294 | 0.377 | 46.8 | 0.244 | 0.111 | 0.669 | > 100
7 | Nc1ccc(-c2ccc3ncc4ccc(=O)n(-c5cccc(C(F)(F)F)c5)c4c3c2)cn1 | – | 8.66 | 1.45 | 0.266 | 0.402 | > 33.7 | 0.275 | 0.948 | – | < 0.01 | 11.7 | 0.0408 | < 0.01 | < 0.012 | < 0.01 | < 0.016 | < 0.01 | < 0.0112 | < 0.01 | 4.7
8 | c1cc[c]([Sn]([O]c2cccc3cccnc23)([O]c2cccc3cccnc23)[c]2ccccc2)cc1 | 3.07 | 0.351 | – | 0.4 | 0.429 | 0.859 | 2.73 | 2.6 | 1.43 | 0.186 | 0.377 | 0.144 | 0.198 | 0.203 | 0.294 | 1.31 | 0.938 | – | – | –
9 | C/C(O)=C(\N=O)C(=O)NCc1ccccc1 | > 100 | > 100 | > 100 | – | > 100 | > 100 | > 100 | > 100 | – | – | > 100 | – | – | – | – | – | – | – | – | > 100
10 | NC(=S)N/N=C1/CN(c2ccc(Cl)c(Cl)c2)CC(=O)C1c1nc2ccccc2s1 (stereo unspecified) | > 100 | > 100 | > 100 | > 100 | – | > 100 | > 100 | > 100 | – | – | > 100 | – | – | – | – | – | – | – | – | > 100
11 | COc1ccc(-c2n[nH]nc2-c2cc(OC)c3c(c2)OCO3)cc1 | – | 0.336 | 8.27 | 10.5 | 5.45 | > 52.9 | > 100 | 15.6 | – | < 0.01 | > 36.2 | 0.0252 | 0.014 | 0.0627 | 0.035 | 15.7 | 0.0359 | < 0.015 | 0.83 | > 100
12 | Cc1ccc(O)c(NC2=C(Cl)C(=O)N(Cc3ccccc3)C2=O)c1 | > 100 | – | > 100 | 70.6 | 74.2 | 39.3 | > 100 | 43.3 | 35.9 | 25.3 | 72.6 | – | 22.5 | 1.55 | 18.3 | 38.3 | 19.8 | 40.7 | 15 | 37.3
13 | COc1cc2nc(-c3cccc4cccnc34)nc(NC3CCN(Cc4ccccc4)CC3)c2cc1OC | 3.3 | – | – | 3.4 | 1.81 | 2.64 | 2.98 | 2.55 | 1.48 | 1.11 | 2.43 | – | 1.52 | 0.325 | 0.647 | 1.52 | 1.05 | – | – | –
14 | COC(=O)CC(=O)NCC1=CCC(=O)CC1 | > 100 | > 100 | > 100 | > 100 | > 100 | > 100 | > 100 | > 100 | – | – | > 100 | – | – | – | – | – | – | – | – | –
15 | O=C1Nc2ccccc2/C1=C/c1cn(CC(O)Cn2cc(/C=C3\C(=O)Nc4ccccc43)c3ccccc32)c2ccccc12 (stereo unspecified) | 3.78 | 10.8 | – | 2.83 | 7.42 | – | 5.46 | 2.92 | 1.81 | 1.77 | 3.71 | 2.95 | 1.32 | 2.58 | – | 2.68 | 1.52 | – | 1.68 | 3.55

From PubChem BioAssay (NCI)
